Read-outs that look alike come from different tables or passages of the source.
Tests used:
BRD4 = BRD4 signaling by Western blot (c-Myc expression); assay type: cell-based
BCBL-1 cells [1] = test: RNA-Sequencing of compound-treated vs vehicle-treated cells; assay type: cell-based, human; conditions: for Ratio, ARC / Ratio, ARRDC3 / Ratio, ATF3 / Ratio, CCDC169-SOHLH2 / Ratio, CD28 / Ratio, CD44 / Ratio, CFAP58 / Ratio, CHAC1 / Ratio, CSF1R / Ratio, DDIT3 / Ratio, DDIT4 / Ratio, FOS / Ratio, IFNG / Ratio, IRF7 / Ratio, LGALS9B / Ratio, MCM5 / Ratio, PRKCB / Ratio, RP11-707M3.3 / Ratio, SOCS3 / Ratio, SPINT1: gene expression, treated vs vehicle BCBL-1 cells
Method: RNA-Sequencing (RNA-Seq) of triplicate samples was performed by BGI Americas Corporation using their unique DNBSEQ sequencing technology. The completed RNA-Sequencing data was submitted to NCBI Sequence Read Archive (SRA# # PRJNA813422). Raw sequencing reads were analyzed using the RSEM software (version 1.3.0; human GRCh38 genome sequence and annotation) and gene expression was quantified as previously described. The EBSeq software was utilized to call differentially expressed genes that were statistically significant using a false discovery rate (FDR) less than 0.05. Differentially expressed genes between compounds- and vehicle-treated PEL cells were used as input for the GO enrichment analyses.

BCBL-1 cells [2] = test: Cell death regulatory proteins by Western blot; assay type: cell-based; conditions: 50 nM, 48 h
JSC-1 = test: WST-1 cytotoxicity assay, JSC-1 (KSHV+ PEL); assay type: cell-based; conditions: 72 h
Source text: (§1) Fig 2 Identification of newly synthesized dual inhibitors with anti-PEL activities. (A) The binding mode of (+)-JQ1 with BRD4^BD1 (PDB: 3MXF). BRD4^BD1 is shown as hot pink cartoon with gray surface. Asn140 in BRD4^BD1 is shown as sticks and colored in following pattern: atom C hot pink, atom N dark blue, and atom O yellow. (+)-JQ1 is shown as sticks and colored in following patten: atom C hot pink, atom N dark blue, atom O yellow, atom S golden, and atom Cl green. The solvent exposed region (SEG) of (+)-JQ1 are indicated with white arrow. (B) The binding modes of SAHA and entinostat with HDAC2 (PDB: 3MAX). HDAC2 is shown as blue cartoon with gray surface. Asp181 and His183 in HDAC2 are shown as sticks and colored in following pattern: atom C blue, atom N dark blue, and atom O yellow. The catalytic zinc ion in the active site of HDAC2 is shown as black sphere. SAHA is shown as sticks and colored in following pattern: atom C green, atom N dark blue, and atom O yellow. Entinostat is shown as sticks and colored in following pattern: atom C hot pink, atom N dark blue, and atom O yellow. The SEG of SAHA or entinostat is indicated with white arrow. Hydrogen bonds (H-bonds) are presented by red dash lines. (C) The HDACs/BRD4 dual inhibitors 002-011 were designed by fusing the key pharmacophores of (+)-JQ1 (pink) and HDAC inhibitors (blue), SAHA or entinostat, via various chemical linkers (green). (D) Anti-PEL activities of the new compounds. Five KSHV positive and two KSHV negative lymphoma cell lines were treated with indicated concentrations of these compounds for 72 h. Then the cytotoxicity was determined using the WST-1 assay. (+)-JQ1, SAHA and entinostat were used for the comparisons as single inhibitors. The CC50 for each compound was calculated using GraphPad Prism 5.0 software. Error bars represent S.D. for 3 independent experiments.
(§2) Fig 4 Identification of anti-PEL activities for compound 009 stereoisomers. (A) The chemical structures of anti-HDACs/BRD4 bifunctional molecules 009P1 and 009P2, as well as anti-HDACs or anti-BRD4 mono-functional molecules 009N1, 009N2, 009N3, and 009N4. (B-C) Four KSHV+ PEL cell lines were treated with indicated concentrations of 009P1, 009P2 or 009N1-N4 for 72 h, then the cytotoxicity was determined using the WST-1 assay. (D-I) BCBL-1 cells were treated with these compounds at the respective 2× CC50 for 24 h, then cell cycle (D-F) and apoptosis (G-I) were measured by flow cytometry analysis. Error bars represent S.D. for 3 independent experiments, ** = p<0.01 (vs vehicle control).
(§3) The cell viability following treatment with compounds was assessed by the WST-1 assay (Roche, Indianapolis, Indiana, USA) according to the manufacturer’s protocol as described previously. The absorbance signal was measured using a microplate reader (Biotek Synergy 2). The 50% cytotoxic concentration (CC50) for each compound was calculated from these dose-response curves using the software GraphPad Prism v5.0. Data were normalized as the fold change compared to the DMSO control.

BCBL-1 = test: WST-1 cytotoxicity assay, BCBL-1 (KSHV+ PEL); assay type: cell-based; conditions: BCBL1, 72 h
Source text: as §1, §2, §3

HUVEC = test: WST-1 cytotoxicity on primary cells HUVEC; assay type: cell-based, human
Method: as §3
Supplementary file ppat.1011089.s006.tif: S5 Fig Cytotoxicity of tested compounds on HUVEC. The primary cells HUVEC were treated with indicated concentrations of compounds for 72 h, then cell viability was assessed using the WST-1 assay. The CC50 for each compound was calculated from the dose-response curves using Graphpad Prism 5.0 software. Data was normalized as the fold change compared to the DMSO control. (TIF) Click here for additional data file.

BCP-1 = test: WST-1 cytotoxicity assay, BCP-1 (KSHV+ PEL); assay type: cell-based; conditions: BCP-1, 72 h
Source text: as §1, §2, §3

[3] = Pharmacokinetics in plasma of mice (LC-MS/MS); conditions: male, NOD/SCID, mouse, in vivo
Method: The i.p. and p.o. dose were formulated with DMSO/PEG300/Tween80/saline (5/30/10/55). Samples were obtained at 0.25, 0.5, 1, 2, 4, and 8 hours post dosing via tail snipping, transferred into plastic microcentrifuge tubes containing 4 μL of K2-EDTA (0.5 M) as anti-coagulant and placed on wet ice until centrifugation. Harvested blood samples were centrifuged shortly after collection at 4,000 g 4°C for 10 minutes. After centrifugation, the amount of compounds in the plasma was determined using HPLC-coupled tandem mass spectrometry (LC-MS/MS). Values are calculated from arithmetic mean plasma concentrations (n = 3 mice per condition). AUClast and t1/2 were determined using GraphPad Prism v5.0. The bioavailability F (%) = AUClast for p.o. / AUClast for i.p. × 100 [50].

[4] = read-out: KSHV-infected lymphomas CC50, JSC-1
[5] = read-out: KSHV-infected lymphomas CC50, BCBL-1
[6] = read-out: KSHV-infected lymphomas CC50, BCP-1
[7] = ip, mice, single i.p. 50 mg/kg, plasma, read-out: AUClast
[8] = ip, mice, single i.p. 50 mg/kg, plasma, read-out: Cmax
[9] = ip, mice, single i.p. 50 mg/kg, plasma, read-out: Tmax
[10] = ip, mice, single i.p. 50 mg/kg, plasma, read-out: t1/2 (converted)
[11] = BCBL-1 cells, 48 h, Western blot

| SMILES | Ratio, ARC (BCBL-1 cells [1]) | Ratio, ARRDC3 (BCBL-1 cells [1]) | Ratio, ATF3 (BCBL-1 cells [1]) | Ratio, CCDC169-SOHLH2 (BCBL-1 cells [1]) | Ratio, CD28 (BCBL-1 cells [1]) | Ratio, CD44 (BCBL-1 cells [1]) | Ratio, CFAP58 (BCBL-1 cells [1]) | Ratio, CHAC1 (BCBL-1 cells [1]) | Ratio, CSF1R (BCBL-1 cells [1]) | Ratio, DDIT3 (BCBL-1 cells [1]) | Ratio, DDIT4 (BCBL-1 cells [1]) | Ratio, FOS (BCBL-1 cells [1]) | Ratio, IFNG (BCBL-1 cells [1]) | Ratio, IRF7 (BCBL-1 cells [1]) | Ratio, LGALS9B (BCBL-1 cells [1]) | Ratio, MCM5 (BCBL-1 cells [1]) | Ratio, PRKCB (BCBL-1 cells [1]) | Ratio, RP11-707M3.3 (BCBL-1 cells [1]) | Ratio, SOCS3 (BCBL-1 cells [1]) | Expression of p-RB, cleaved-caspase 3 and cleaved-PARP (BCBL-1 cells [2]) | further results |
| --- | --- | --- | --- | --- | --- | --- | --- | --- | --- | --- | --- | --- | --- | --- | --- | --- | --- | --- | --- | --- | --- |
| Cc1sc2c(c1C)C(c1ccc(Cl)cc1)=N[C@@H](CC(=O)OC(C)(C)C)c1nnc(C)n1-2 [(+)-JQ1, reference compound] | 21.83 | 27.58 | 28.74 | 0.1299 | 0.05544 | 0.09101 | 0.2089 | 55.65 | 62.41 | 20.73 | 28.37 | 78.64 | 0.1251 | 52.67 | 0.04587 | 0.1471 | 0.06358 | 0.2212 | 37.19 | almost unchanged | c-Myc expression (BRD4): drastically downregulated; Ratio, SPINT1 (BCBL-1 cells [1]): 0.1876; CC50 (JSC-1; [4]): 41 nM; CC50 (BCBL-1; [5]): 18 nM; Cytotoxicity in primary cells HUVEC (HUVEC; 72 h, WST-1): moderate cytotoxicity; CC50 (BCP-1; [6]): 59 nM; AUC(0-t) [3, 7]: 78000 ng·h/mL; Cmax [3, 8]: 28700 ng/mL; Tmax [3, 9]: 1 h; half-life [3, 10]: 2.27 h |
| O=C(CCCCCCC(=O)Nc1ccccc1)NO [SAHA, suberoylanilide hydroxamic acid, reference compound] | 10.26 | 7.834 | 33.64 | 0.1697 | 0.3793 | 0.293 | 0.411 | 53.96 | 3.864 | 16.62 | 5.426 | 21.04 | 0.312 | 5.624 | 0.3605 | 0.4255 | 0.3013 | 0.2461 | 9.781 | almost unchanged | c-Myc expression (BRD4; [11]): subtle effect; CC50 (JSC-1; [4]): 680 nM; CC50 (BCBL-1; [5]): 41 nM; Cytotoxicity in primary cells HUVEC (HUVEC; 72 h, WST-1): moderate cytotoxicity; CC50 (BCP-1; [6]): 1420 nM; AUC(0-t) [3, 7]: 12000 ng·h/mL; Cmax [3, 8]: 16600 ng/mL; Tmax [3, 9]: 0.25 h; half-life [3, 10]: 0.72 h |
| Cc1sc2c(c1C)C(c1ccc(Cl)cc1)=N[C@@H](CC(=O)O[C@H](C)c1ccc(C(=O)Nc3ccccc3N)cc1)c1nnc(C)n1-2 [009P1, (R)-1-(4-((2-aminophenyl)carbamoyl)phenyl)ethyl 2-((S)-4-(4-chlorophenyl)-2,3,9-trimethyl-6H-thieno[3,2-f][1,2,4]triazolo[4,3-a][1,4]diazepin-6-yl)acetate] | 18.81 | 30.72 | 12.86 | 0.3358 | 0.4509 | 0.1954 | 0.1358 | 8.345 | 24.82 | 12.33 | 21.76 | 46.18 | 0.1678 | 23.79 | 0.03812 | 0.2002 | 0.02626 | 0.3443 | 41.42 | strongly affected | c-Myc expression (BRD4; [11]): decreased; Genes differentially expressed between 009P1- and 009P2-treated PEL cells (BCBL-1 cells [1]; BCBL-1, ≥ 2 fold-change and FDR < 0.05): 473 genes; Ratio, SPINT1 (BCBL-1 cells [1]): 0.1504; CC50 (JSC-1; read-out: CC50, JSC-1): 300 nM; CC50 (BCBL-1; read-out: CC50, BCBL-1): 16 nM; Cytotoxicity in primary cells HUVEC (HUVEC): much less cytotoxicity; CC50 (BCP-1; read-out: CC50, BCP-1): 120 nM; bioavailability ([3]; 50 mg/kg): 24.5%; AUC(0-t) ([3]; ip, 50 mg/kg): 159000 ng·h/mL; Cmax ([3]; ip, 50 mg/kg): 74600 ng/mL; Tmax ([3]; ip, 50 mg/kg): 1 h; half-life ([3]; ip, 50 mg/kg): 1.66 h; AUC(0-t) ([3]; po, 50 mg/kg): 39000 ng·h/mL; Cmax ([3]; po, 50 mg/kg): 11500 ng/mL; Tmax ([3]; po, 50 mg/kg): 0.5 h; half-life ([3]; po, 50 mg/kg): 1.12 h |

— PMC9879403, “Oncolytic strategy using new bifunctional HDACs/BRD4 inhibitors against virus-associated lymphomas” (PLOS Pathogens, 2023)
